The nature of data set [1]: tissue distribution after single and repeated administration. The class given is in vivo, mice. Particulars: for concentration at 24 h: 20 mg/kg, mean ± SEM. On the procedure:
Via heparin-coated catheters a maximum of 50 µL blood was collected from the tail vein at 0.25, 0.5, 1, 2, 3, 4, 6, 8, or 24 h after administration and immediately centrifuged at 4000× g at 4 °C for 10 min. For repeated administration 20 mg/kg BW SH045 were administered at 8:00 a.m. on five consecutive days, once a day. Blood was taken 1 h and 24 h after drug administration. Tissue samples were harvested from isoflurane-euthanized animals at indicated time points. Mice were transcardially perfused with PBS and dissected tissues were washed to remove remaining blood. Plasma and tissue samples were stored at −80 °C until analysis. Urine was collected by bladder puncture at indicated time points.
For tissue analysis, homogenates (10% in phosphate-buffered saline, PBS) were prepared. Homogenate, plasma, and urine were mixed with IS and extracted with ice-cold ACN, centrifuged, filtered and stored in the autosampler at 6 °C until analysis in duplicates by LC-MS/MS (details in Supplementary Materials SM4).
Larixyl-N-methylcarbamate ((1S,4S,4aR,8aS)-4-((S)-3-hydroxy-3-methylpent-4-en-1-yl)-4a,8,8-trimethyl-3-methylenedeca-hydro-naphthalen-1-yl methylcarbamate, SH045, TRPC6 inhibitor) was synthesized as described by Häfner et al. [1]. (+)-Larixol (internal standard, IS) was isolated from Larix decidua turpentine [2]. Kolliphor® EL was obtained from Caelo (Hilden, Germany). Acetonitrile (ACN), water, and formic acid (LC -MS grade each) were purchased from Fisher Scientific (Schwerte, Germany). Testo sterone, 4-nitrophenol, β-nicotinamide adenine dinucleotide 2′ -phosphate reduced tetrasodium salt hydrate (β-NADPH), uridine 5′-diphosphoglucuronic acid ammonium salt (UDPGA), pilocarpine, ticlopidine, quercetin, sulfaphenazole, fluvoxamine, quinidine, 4-methyl pyrazole, ketoconazole, alamethicin and Dulbecco’s phosphate-buffered saline (DPBS, pH 7.4) were obtained from Merck (Darmstadt, Germany). Ciprofloxacin was purchased from Bayer AG (Leverkusen, Germany). Liver microsomes from mice (CD-1, male, MLM) and human (pooled: 50 donors, HLM) were obtained from Fisher Scientific (Gibco, protein concentration: 20 mg/mL respectively). Syringe filters (Phenex, regenerated cellulose, pore-size 0.2 μm) were purchased from Phenomenex (Aschaffenburg, Germany) and centrifugal filter units (30 kDa) from Merck Millipore […]
SM2 Quantification of SH045 by HPLC and tandem mass spectrometric methods (LC-MS/MS) In brief, chromatographic separation was achieved using a Zorbax Eclipse XDB-C8 column (100 × 3.0 mm, 3.5 μm 80 Å, Agilent Technologies) with linear gradient elution using water and ACN, each with 0.1 % formic acid as additive, during a total run time of 20 min. For quantification (+)-larixol was used as IS. MS detection was achieved by multiple reaction monitoring (MRM) scan mode for SH045 (m/z 364.3/289.3) and IS (m/z 307.2/151.2), respectively. Further conditions and parameters were set as reported previously [3]. Freshly prepared calibration samples for SH045 in plasma and tissue comprised eight concentration levels analyzed in duplicates (2, 5, 10, 100, 200, 800, 1200 and 1600 ng/mL). For metabolism studies in microsomes, SH045 was dissolved in pure DMSO. […]
All analyses for metabolite identification included comparative measurements of appropriate control samples in order to avoid false-positive results.
SM3 Histopathological examination of tissue repeatedly exposed to SH045 Liver, kidney and lung were collected after repeated administration for inspection for histopathological changes, fixed in 4% paraformaldehyde solution and embedded in paraffin. Tissue slices (6 µm) of three animals either of untreated controls or such assigned to repeated administration of SH045 were deparaffinized and hematoxylin and eosin-stained. At least 5 slices per animal and tissue were microscopically examined using a light microscope (Zeiss, […]
SM4 Preparation of samples for analysis of SH045 and its metabolites by LC-MS/MS […]

For a further data set, the system named is liver, kidney and lung. Kind of data set: histopathological examination of tissue after administration of SH045. Format: in vivo, mice. Particulars: 20 mg/kg BW i.v., single and repeated (5 days); hematoxylin-eosin. An excerpt: Liver, kidney, and lung were collected after repeated administration, fixed and processed for inspection for histopathological alterations (Supplementary Materials SM3).
Larixyl-N-methylcarbamate ((1S,4S,4aR,8aS)-4-((S)-3-hydroxy-3-methylpent-4-en-1-yl)-4a,8,8-trimethyl-3-methylenedeca-hydro-naphthalen-1-yl methylcarbamate, SH045, TRPC6 inhibitor) was synthesized as described by Häfner et al. [1]. (+)-Larixol (internal standard, IS) was isolated from Larix decidua turpentine [2]. Kolliphor® EL was obtained from Caelo (Hilden, Germany). Acetonitrile (ACN), water, and formic acid (LC -MS grade each) were purchased from Fisher Scientific (Schwerte, Germany). […]
SM2 Quantification of SH045 by HPLC and tandem mass spectrometric methods (LC-MS/MS) In brief, chromatographic separation was achieved using a Zorbax Eclipse XDB-C8 column (100 × 3.0 mm, 3.5 μm 80 Å, Agilent Technologies) with linear gradient elution using water and ACN, each with 0.1 % formic acid as additive, during a total run time of 20 min. For quantification (+)-larixol was used as IS. […] Freshly prepared calibration samples for SH045 in plasma and tissue comprised eight concentration levels analyzed in duplicates (2, 5, 10, 100, 200, 800, 1200 and 1600 ng/mL). […]

In another data set the test system is TRPC6. Also on record: method as in PMID 29522264. Particulars: in vitro; cited from earlier work.

Like-named read-outs stand apart in the source and are kept apart here.

The values below come from paper PMC8998618, “A Pharmacokinetic and Metabolism Study of the TRPC6 Inhibitor SH045 in Mice by LC-MS/MS” (International Journal of Molecular Sciences, 2022).

With `C=C[C@@](C)(O)CC[C@H]1C(=C)C[C@H](OC(=O)NC)[C@H]2C(C)(C)CCC[C@]12C` [SH045, (1S,4S,4aR,8aS)-4-((S)-3-Hydroxy-3-methylpent-4-en-1-yl)-4a,8,8-trimethyl-3-methylenedecahydronaphthalen-1-yl methylcarbamate], the “entry into the brain” value in data set [1] (20 mg/kg i.v.) is “entered the brain”. The “drug accumulation in tissues after repeated administration” value in data set [1] (20 mg/kg i.v. five times once a day) is reported as “no hints for drug accumulation”. Besides, the concentration at 24 h came to 19.6 ± 5.5 ng/g in data set [1] (male, C57BL/6, mouse, brain, iv, 24 h after repeated (5 days, once a day) 20 mg/kg BW i.v., read-out: Concentration, Brain); 14.8 ± 7.6 ng/g in data set [1] (male, C57BL/6, mouse, brain, iv, 24 h after single (1×) 20 mg/kg BW i.v., read-out: Concentration, Brain); 369 ± 50 ng/g in data set [1] (male, C57BL/6, mouse, fat, iv, 24 h after repeated (5 days, once a day) 20 mg/kg BW i.v., read-out: Concentration, Fat); 333 ± 61.2 ng/g in data set [1] (male, C57BL/6, mouse, fat, iv, 24 h after single (1×) 20 mg/kg BW i.v., read-out: Concentration, Fat); 17.8 ± 4.4 ng/g in data set [1] (male, C57BL/6, mouse, kidney, iv, 24 h after repeated (5 days, once a day) 20 mg/kg BW i.v., read-out: Concentration, Kidney); 14.8 ± 5.9 ng/g in data set [1] (male, C57BL/6, mouse, kidney, iv, 24 h after single (1×) 20 mg/kg BW i.v., read-out: Concentration, Kidney). Moreover, the concentration at 24 h is 17.5 ± 4.6 ng/g in data set [1] (male, C57BL/6, mouse, liver, iv, 24 h after repeated (5 days, once a day) 20 mg/kg BW i.v., read-out: Concentration, Liver); 14.2 ± 5.2 ng/g in data set [1] (male, C57BL/6, mouse, liver, iv, 24 h after single (1×) 20 mg/kg BW i.v., read-out: Concentration, Liver); 2390 ± 1020 ng/g in data set [1] (male, C57BL/6, mouse, lung, iv, 24 h after repeated (5 days, once a day) 20 mg/kg BW i.v., read-out: Concentration, Lung); 2170 ± 414 ng/g in data set [1] (male, C57BL/6, mouse, lung, iv, 24 h after single (1×) 20 mg/kg BW i.v., read-out: Concentration, Lung). Besides, the Kp in data set [1] (male, C57BL/6, mouse, lung, iv, 20 mg/kg BW, after i.v. administration, read-out: first-pass uptake into the lung relative to respective plasma concentration) is around 20. The “histopathological changes in liver, kidney and lung” value in the data set with liver, kidney and lung was “no histopathological changes were observed”. In addition, the half-maximal inhibitory concentration (IC50) (commonly the concentration that gives 50% inhibition) with TRPC6 is 5.8 nM.
